# Test results as given in patent US8709396B2, “Method and composition for attracting arthropods by volatizing an acid” (Premark FEG L.L.C., priority 2002, dated 2014).
# System: Aedes aegypti (AE) mosquitoes
# Assay: olfactometer two-stimulus choice test, average percent of mosquitoes attracted
# Assay type: in vivo
# Conditions: for attraction of mosquitoes, result in words: olfactometer, AE mosquitoes, summary statements of the text
# Protocol: 100 Aedes aegypti (AE) mosquitoes were placed into an olfactometer unit. For each test, the mosquitoes were exposed to two sets of stimuli for a collection period of 3 minutes. The mosquitoes could choose between the stimuli or not respond.
# For the first test, ferric chloride hexahydrate was impregnated on diatomaceous earth and was activated with a moisture containing substance to form the first stimulus center. This material released water and trace amounts of hydrochloric acid, HCl. The second stimulus center in this test was a blank (no chemical stimulus).
# For the second test, dry carbon dioxide was fed at 5 ml/min from a standard gas cylinder as the first stimulus center. The second stimulus center in this test was a blank (no chemical stimulus).
# For the third test, ferric chloride hexahydrate was impregnated on diatomaceous earth and was activated with a moisture containing substance to form the first stimulus center. This material released water and trace amounts of hydrochloric acid, HCl. The second stimulus center was dry carbon dioxide fed at 5 ml/min from a standard gas cylinder.
# As with Example 1, 100 AE mosquitoes were placed into an olfactometer unit. For each test, the mosquitoes were exposed to two sets of stimuli for a collection period of 3 minutes. The mosquitoes could choose between the stimuli or not respond.
# For the first test, dry carbon dioxide was fed at 5 ml/min from a standard gas cylinder as the first stimulus center. The second stimulus center in this test was a blank (no chemical stimulus).
# For the second test, ferric chloride hexahydrate impregnated on diatomaceous earth and sodium bicarbonate powder were contained in a sachet. The sachet was activated by combining the two powders stimulating a chemical reaction that released carbon dioxide, water and trace amounts of hydrochloric acid, forming the first stimulus center. The reaction produces by-product water that stimulates hydrochloric acid production from the ferric chloride. The sachet was designed to release CO2 at a rate of 5 ml/min over the collection period. The second stimulus center in this test was a blank (no chemical stimulus).
# For the third test, a sachet containing ferric chloride hexahydrate impregnated on diatomaceous earth and sodium bicarbonate powder, similar to the sachet used in the second test, was activated with a moisture-containing substance to release carbon dioxide water and trace amounts of hydrochloric acid, forming the first stimulus center. The reaction produces by-product water that stimulates hydrochloric acid production from the ferric chloride. The second stimulus center was carbon dioxide fed at 5 ml/min from a standard gas cylinder.
# As with Examples 1 and 2, 100 AE mosquitoes were placed into an olfactometer unit. For each test, the mosquitoes were exposed to two sets of stimuli for a collection period of 3 minutes. The mosquitoes could choose between the stimuli or not respond.
# For the first test, ferric chloride hexahydrate impregnated on a diatomaceous earth was activated with a moisture containing substance to form the first stimulus center. This material released water and trace amounts of hydrochloric acid, HCl. The second stimulus center in this test was a blank (no chemical stimulus).
# The sachet was activated by combining the two powders stimulating a chemical reaction that released carbon dioxide, water and trace amounts of hydrochloric acid, forming the first stimulus center. The reaction produces by-product water that stimulates hydrochloric acid production from the ferric chloride. The sachet was designed to release carbon dioxide at a rate of 5 ml/min. The second stimulus center in this test was a blank.
# For the third test, a sachet identical to that used in the second test and containing ferric chloride hexahydrate impregnated on diatomaceous earth and sodium bicarbonate powder was activated, forming the first stimulus center.
smiles,measurement,setting,value
"O=C=O [CO2 (Dry), carbon dioxide]",Stimulant 2 - Avg. % attracted,"100 AE mosquitoes, 3 min, first stimulus center Activated Ferric Chloride",12%
same,Stimulant 2 - Avg. % attracted,"100 AE mosquitoes, 3 min, first stimulus center CO2/HCl/H2O Sachet",2%
same,Stimulant 1 - Avg. % attracted,"100 AE mosquitoes, 3 min collection, second stimulus center blank (Examples 1-3)",21%
same,Stimulant 2 - Avg. % attracted,"Example 4: CO2 5 mL/min, 3 min, first stimulus center CO2 flowing over water surface",7%
same,Stimulant 1 - Avg. % attracted,"Example 4: dry CO2 5 mL/min through tube or cartridge, 100 AE mosquitoes, 3 min, second stimulus center blank",15%
same,"attraction of mosquitoes, result in words",listed as CO2 (dry),is an attractant for mosquitoes
same,"attraction of mosquitoes, result in words",listed as carbon dioxide,did not draw significant numbers
